Patent US20230150924A1, “NOVEL COMPOUND HAVING CANCER METASTASIS INHIBITORY ACTIVITY, PREPARATION METHOD THEREFOR, AND PHARMACEUTICAL COMPOSITION FOR INHIBITING CANCER METASTASIS AND INVASION OR TREATING COLORECTAL CANCER, COMPRISING COMPOUND” (CELLGENTEK CO., LTD., priority 2019, published 2023)

Assays:
[1] = tested on: invasion of colorectal cancer cells; assay: In vivo relative invation (invasion; EV and KITENIN controls, no method described); details: relative to EV (=1); KIT = KITENIN
[2] = tested on: KAI1 promoter; assay: KAI1 promoter luciferase reporter assay in transfected Caco2 cells; format: cell-based, human; details: 1 μM compound, 16 hours, transfected Caco2 cells, luciferase activity relative to DMSO control (=1); for fold induction at 1 µM: Homo sapiens, Caco-2, 16 h, read-out: Relative KAI promoter activity
Procedure: Experiments were conducted to evaluate the metastasis-related promoter activity-increasing effects of the compounds according to the present invention. Specifically, the KAI1 promoter reporter vector was used. In this case, the pRL-TK vector, a vector expressing renilla luciferase, was used as an internal control indicating the transfection efficiency in each transfected well.
First, 24 hours before transfection, 2×10^6 human colon cancer cell line, Caco2) cells were cultured in 10 ml of DMEM containing 10% FBS and 1% penicillin/streptomycin on a 100-mm-diameter plate, and then transformed with 5 μg of a pRL-TK vector mixture containing a transfection reagent and the KAI1 promoter, and then cultured in a 5% CO2 incubator at 37° C. for 48 hours. Thereafter, the adherent cells were detached using trypsin and counted using a hemacytometer, and then 5×10^3 transfected Caco2 cells in 100 μl of DMEM containing 10% FBS and 1% penicillin/streptomycin were seeded into each well of a 96-well plate and cultured in a 5% CO2 incubator at 37° C. for 24 hours. Next, 1 μM of each of the 305 compounds prepared in Examples 1 to 305 was added to each well, and after 16 hours, 100 μl of a lysis buffer for analysis containing a luciferase substrate was added, and the cells were lysed with stirring for 20 minutes. After completion of lysis, the cells were measured for luciferase activity using a luciferase reporter assay system (Promega, USA). […] In addition, data were analyzed at a significance level of p<0.05 by one-way ANOVA (Tukey's HSD), and SPSS 17.0 (Chicago, USA) statistical program was used. In Table 14 to 20, PHA is the PHA-665752, and KIT is KITENIN.

Row | Compound | In vivo relative invation [1] | fold induction at 1 µM [2] | Relative KAI promoter activity [2]
1 | COc1cc(OC)cc(C(=O)NCC(=O)c2ccccc2)c1 [Example 42, 3,5-dimethoxy-N-(2-oxo-2-phenylethyl)benzamide] | 1.525 | 1.12 | –
2 | O=C(CNC(=O)c1ccc(-c2ccccc2)cc1)c1ccccc1 [Example 43, N-(2-oxo-2-phenylethyl)-[1,1′-biphenyl]-4-carboxamide] | 0.9774 | 1.91 | –
3 | O=C(CNC(=O)c1ccccc1F)c1ccc(Cl)cc1 [Example 44, N-(2-(4-chlorophenyl)-2-oxoethyl)-2-fluorobenzamide] | 0.9752 | 0.98 | –
4 | O=C(CNC(=O)c1ccc(F)cc1)c1ccc(Cl)cc1 [Example 45, N-(2-(4-chlorophenyl)-2-oxoethyl)-4-fluorobenzamide] | 1.476 | 0.84 | –
5 | O=C(CNC(=O)c1ccco1)c1ccc(Cl)cc1 [Example 46, N-(2-(4-chlorophenyl)-2-oxoethyl)furan-2-carboxamide] | 1.181 | 0.98 | –
6 | O=C(CNC(=O)c1cccc(Cl)c1)c1ccc(Cl)cc1 [Example 47, 3-chloro-N-(2-(4-chlorophenyl)-2-oxoethyl)benzamide] | 0.9038 | 0.76 | –
7 | C/C=C/C(=O)NCC(=O)c1ccc(Cl)cc1 [Example 48, (E)-N-(2-(4-chlorophenyl)-2-oxoethyl)but-2-enamide] | 1.19 | 0.85 | –
8 | O=C(CCc1ccccc1)NCC(=O)c1ccc(Cl)cc1 [Example 49, N-(2-(4-chlorophenyl)-2-oxoethyl)-3-phenylpropanamide] | 1.197 | 0.7 | –
9 | C=CC(=O)NCC(=O)c1ccc(Cl)cc1 [Example 50, N-(2-(4-chlorophenyl)-2-oxoethyl)acrylamide] | 1.089 | 0.94 | –
10 | Cc1ccccc1C(=O)NCC(=O)c1ccc(Cl)cc1 [Example 51, N-(2-(4-chlorophenyl)-2-oxoethyl)-2-methylbenzamide] | 1.513 | 1.81 | –
11 | COc1ccc(C(=O)NCC(=O)c2ccc(Cl)cc2)cc1 [Example 52, N-(2-(4-chlorophenyl)-2-oxoethyl)-4-methoxybenzamide] | 1.158 | 1.36 | –
12 | Cc1cccc(C(=O)NCC(=O)c2ccc(Cl)cc2)c1 [Example 53, N-(2-(4-chlorophenyl)-2-oxoethyl)-3-methylbenzamide] | 0.9411 | 2.02 | –
13 | CCC(=O)NCC(=O)c1ccc(Cl)cc1 [Example 54, N-(2-(4-chlorophenyl)-2-oxoethyl) propionamide] | 1.083 | 0.7 | –
14 | O=C(CNC(=O)C1CCCCC1)c1ccc(Cl)cc1 [Example 55, N-(2-(4-chlorophenyl)-2-oxoethyl)cyclohexanecarboxamide] | 1.179 | 0.67 | –
15 | O=C(CNC(=O)C1CC1)c1ccc(Cl)cc1 [Example 56, N-(2-(4-chlorophenyl)-2-oxoethyl)cyclopropanecarboxamide] | 1.249 | 0.92 | –
16 | O=C(CNC(=O)C1CCC1)c1ccc(Cl)cc1 [Example 57, N-(2-(4-chlorophenyl)-2-oxoethyl)cyclobutanecarboxamide] | 1.217 | 0.94 | –
17 | O=C(CNC(=O)c1cccs1)c1ccc(Cl)cc1 [Example 58, N-(2-(4-chlorophenyl)-2-oxoethyl)thiophene-2-carboxamide] | 1.244 | 0.91 | –
18 | COCc1ccccc1C(=O)NCC(=O)c1ccc(Cl)cc1 [Example 59, N-(2-(4-chlorophenyl)-2-oxoethyl)-2-(methoxymethyl)benzamide] | 1.007 | 1.56 | –
19 | CC(C)(C)CC(=O)NCC(=O)c1ccc(Cl)cc1 [Example 60, N-(2-(4-chlorophenyl)-2-oxoethyl)-3,3-dimethylbutanamide] | 0.9713 | 0.81 | –
20 | CCCCC(=O)NCC(=O)c1ccc(Cl)cc1 [Example 61, N-(2-(4-chlorophenyl)-2-oxoethyl)pentanamide] | 1 | 0.72 | –

Row | Compound | In vivo relative invation [1] | fold induction at 1 µM [2] | Relative KAI promoter activity [2]
21 | COc1ccc(C(=O)NCC(=O)c2ccc(Cl)cc2)cc1 [Example 62, N-(2-(4-chlorophenyl)-2-oxoethyl)-4-methoxybenzamide] | 1.122 | – | 1.03
22 | O=C(CNS(=O)(=O)c1cccc([N+](=O)[O-])c1)c1ccc(Cl)cc1 [Example 63, N-(2-(4-chlorophenyl)-2-oxoethyl)-3-nitrobenzenesulfonamide] | 1.102 | 0.7 | –
23 | O=C(CNC(=O)c1ccc(F)cc1F)c1ccc(Cl)cc1 [Example 64, N-(2-(4-chlorophenyl)-2-oxoethyl)-2,4ifluorobenzamide] | 1.083 | 1.35 | –
24 | COCC(=O)NCC(=O)c1ccc(Cl)cc1 [Example 65, N-(2-(4-chlorophenyl)-2-oxoethyl)-2-methoxyacetamide] | 1.191 | 0.84 | –
25 | CC(C)(C)C(=O)NCC(=O)c1ccc(Cl)cc1 [Example 66, N-(2-(4-chlorophenyl)-2-oxoethyl)pivalamide] | 1.168 | 0.87 | –
26 | O=C(CNS(=O)(=O)c1ccc(F)cc1)c1ccc(Cl)cc1 [Example 67, N-(2-(4-chlorophenyl)-2-oxoethyl)-4-fluorobenzenesulfonamide] | 1.175 | 0.87 | –
27 | Cc1ccc(S(=O)(=O)NCC(=O)c2ccc(Cl)cc2)cc1 [Example 68, N-(2-(4-chlorophenyl)-2-oxoethyl)-4-methylbenzenesulfonamide] | 1.125 | 0.88 | –
28 | O=C(CNS(=O)(=O)c1ccc(Cl)cc1)c1ccc(Cl)cc1 [Example 69, 4-chloro-N-(2-(4-chlorophenyl)-2-oxoethyl)benzenesulfonamide] | 1.095 | 0.84 | –
29 | O=C(CNS(=O)(=O)Cc1ccccc1)c1ccc(Cl)cc1 [Example 70, N-(2-(4-chlorophenyl)-2-oxoethyl)-1-phenylmethanesulfonamide] | 1.274 | 0.81 | –
30 | COc1ccc(S(=O)(=O)NCC(=O)c2ccc(Cl)cc2)cc1 [Example 71, N-(2-(4-chlorophenyl)-2-oxoethyl)-4-methoxybenzenesulfonamide] | 1.135 | 0.85 | –
31 | O=C(CNC(=O)c1cc(C(F)(F)F)cc(C(F)(F)F)c1)c1ccc(Cl)cc1 [Example 72, N-(2-(4-chlorophenyl)-2-oxoethyl)-3,5-bis(trifluoromethyl)benzamide] | 1.044 | 0.8 | –
32 | O=C(CNC(=O)c1ccccc1C(F)(F)F)c1ccc(Cl)cc1 [Example 73, N-(2-(4-chlorophenyl)-2-oxoethyl)-2-(trifluoromethyl)benzamide] | 1.116 | 0.99 | –
33 | O=C(CNC(=O)c1cccc(C(F)(F)F)c1)c1ccc(Cl)cc1 [Example 74, N-(2-(4-chlorophenyl)-2-oxoethyl)-3-(trifluoromethyl)benzamide] | 1.17 | 0.78 | –
34 | O=C(CNC(=O)c1ccc(C(F)(F)F)cc1)c1ccc(Cl)cc1 [Example 75, N-(2-(4-chlorophenyl)-2-oxoethyl)-4-(trifluoromethyl)benzamide] | 1.283 | 0.71 | –
35 | O=C(CNC(=O)c1ccc(F)cc1Cl)c1ccc(Cl)cc1 [Example 76, 2-chloro-N-(2-(4-chlorophenyl)-2-oxoethyl)-4-fluorobenzamide] | 1.12 | 0.83 | –
36 | O=C(CNC(=O)c1cccc([N+](=O)[O-])c1)c1ccc(Cl)cc1 [Example 77, N-(2-(4-chlorophenyl)-2-oxoethyl)-3-nitrobenzamide] | 1.274 | 0.92 | –
37 | O=C(CNC(=O)c1ccc(F)c(F)c1)c1ccc(Cl)cc1 [Example 78, N-(2-(4-chlorophenyl)-2-oxoethyl)-3,4ifluorobenzamide] | 1.17 | 0.9 | –
38 | O=C(CNC(=O)c1cc(Cl)cc(Cl)c1)c1ccc(Cl)cc1 [Example 79, 3,5-dichloro-N-(2-(4-chlorophenyl)-2-oxoethyl)benzamide] | 1.102 | 1.03 | –
39 | O=C(CNC(=O)c1cccc(Cl)c1Cl)c1ccc(Cl)cc1 [Example 80, 2,3-dichloro-N-(2-(4-chlorophenyl)-2-oxoethyl)benzamide] | 1.183 | 0.86 | –
